# Reference: US11866450B2, “Modulators of Cystic Fibrosis Transmembrane Conductance regulator, pharmaceutical compositions, methods of treatment, and process for making the modulators” (priority 2018, dated 2024)
# Target: CFTR-mediated chloride transport (Homo sapiens, UniProt P13569)
# Type: cell-based
# Conditions: enteroid cells incubated with test compound 18-24 hours, acute 10 μM forskolin and 300 nM Compound III; for Max. Activity: % of chloride transport with 3 μM Compound A, 3 μM Compound II and 300 nM acute Compound III triple combination control
# In short: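 Membrane-potential fluorescence AUC over 15 min quantified CFTR chloride transport after acute forskolin (10 μM), IBMX (100 μM) and Compound III (300 nM) in chloride-free buffer. Human enteroid cells were pretreated with compound for 18–24 h; % Activity is relative to 3 μM Compound A + 3 μM Compound II + 300 nM Compound III.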
# Chain of CFTR-mediated chloride transport (P13569 whole entry, looked up): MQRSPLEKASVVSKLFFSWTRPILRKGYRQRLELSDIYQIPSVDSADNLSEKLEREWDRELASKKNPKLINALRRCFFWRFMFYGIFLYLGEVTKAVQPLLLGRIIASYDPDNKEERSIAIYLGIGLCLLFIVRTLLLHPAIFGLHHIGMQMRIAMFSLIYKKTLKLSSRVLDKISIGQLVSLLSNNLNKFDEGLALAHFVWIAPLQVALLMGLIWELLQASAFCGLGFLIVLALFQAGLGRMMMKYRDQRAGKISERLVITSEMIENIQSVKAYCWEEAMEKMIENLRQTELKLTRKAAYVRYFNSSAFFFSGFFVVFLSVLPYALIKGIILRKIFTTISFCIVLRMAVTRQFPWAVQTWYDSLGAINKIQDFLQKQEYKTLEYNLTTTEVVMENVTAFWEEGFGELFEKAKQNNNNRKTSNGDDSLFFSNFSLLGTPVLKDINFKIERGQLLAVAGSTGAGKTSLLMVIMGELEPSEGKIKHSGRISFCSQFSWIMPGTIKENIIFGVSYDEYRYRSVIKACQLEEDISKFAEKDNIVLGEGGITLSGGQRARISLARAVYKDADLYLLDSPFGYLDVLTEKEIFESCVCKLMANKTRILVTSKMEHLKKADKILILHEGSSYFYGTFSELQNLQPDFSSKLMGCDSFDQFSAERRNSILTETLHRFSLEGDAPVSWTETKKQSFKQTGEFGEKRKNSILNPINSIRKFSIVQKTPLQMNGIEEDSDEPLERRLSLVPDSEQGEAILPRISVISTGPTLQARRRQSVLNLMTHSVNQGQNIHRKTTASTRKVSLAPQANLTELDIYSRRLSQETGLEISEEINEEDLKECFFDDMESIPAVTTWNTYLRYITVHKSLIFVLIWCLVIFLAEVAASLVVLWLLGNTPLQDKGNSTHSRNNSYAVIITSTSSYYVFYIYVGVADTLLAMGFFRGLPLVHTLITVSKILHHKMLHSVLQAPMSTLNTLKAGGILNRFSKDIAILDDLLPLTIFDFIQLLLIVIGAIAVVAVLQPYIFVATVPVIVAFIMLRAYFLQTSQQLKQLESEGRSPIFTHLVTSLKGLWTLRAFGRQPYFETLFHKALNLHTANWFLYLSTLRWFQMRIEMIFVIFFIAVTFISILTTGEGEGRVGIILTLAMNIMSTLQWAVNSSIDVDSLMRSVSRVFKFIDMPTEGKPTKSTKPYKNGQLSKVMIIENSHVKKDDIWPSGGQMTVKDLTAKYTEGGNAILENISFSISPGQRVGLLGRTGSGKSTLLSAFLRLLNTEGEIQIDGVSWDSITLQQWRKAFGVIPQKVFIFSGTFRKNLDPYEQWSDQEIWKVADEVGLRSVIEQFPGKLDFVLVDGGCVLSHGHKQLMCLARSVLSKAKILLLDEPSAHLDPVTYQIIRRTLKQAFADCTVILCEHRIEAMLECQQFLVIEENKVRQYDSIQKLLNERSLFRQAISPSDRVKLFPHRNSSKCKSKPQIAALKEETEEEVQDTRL
Compound,EC50,Max. Activity
"CC1CCC2CN(c3nc(-n4ccc(OCCC5(C(F)(F)F)CC5)n4)ccc3C(=O)NS(=O)(=O)c3cccc(n3)N1)C(C)(C)C2 (stereo not shown) [Compound 35, 12,12,17-trimethyl-8-(3-{2-[1-(trifluoromethyl)cyclopropyl]ethoxy}-1H-pyrazol-1-yl)-2λ^6-thia-3,9,11,18,23-pentaazatetracyclo[17.3.1.111,14.05,10]tetracosa-1(23),5(10),6,8,19,21-hexaene-2,2,4-trione]",< 1 µM,+++ (+++ is >60%)
"CC1(C)C[C@H]2CCCCNc3ccc(cn3)S(=O)(=O)NC(=O)c3ccc(-n4ccc(OCC5C6(CC6)C56CC6)n4)nc3N1C2 (single isomer, unassigned) [Compound 120, 8-[3-({dispiro[2.0.2.1]heptan-7-yl}methoxy)-1H-pyrazol-1-yl]-12,12-dimethyl-2λ^6-thia-3,9,11,19,21-pentaazatetracyclo[18.2.2.111,14.05,10]pentacosa-1(23),5,7,9,20(24),21-hexaene-2,2,4-trione]",< 1 µM,++ (++ is 30-60%)
"CC1(C)C[C@H]2CCCn3ccc(n3)S(=O)(=O)NC(=O)c3ccc(N4CC[C@H](OCCC5(C(F)(F)F)CC5)C4=O)nc3N1C2 (single isomer, unassigned) [Compound 192, 20,20-dimethyl-4-(2-oxo-3-{2-[1-(trifluoromethyl)cyclopropyl]ethoxy}pyrrolidin-1-yl)-10λ^6-thia-1,3,9,14,22-pentaazatetracyclo[16.2.1.111,14.02,7]docosa-2,4,6,11(22),12-pentaene-8,10,10-trione]",< 1 µM,+++ (+++ is >60%)
"CC1(C)C[C@@H]2CCCNc3cccc(n3)S(=O)(=O)NC(=O)c3ccc(-n4ccc(OC[C@@H](O)CC5(C(F)(F)F)CC5)n4)nc3N1C2 (single isomer, unassigned) [Compound 283]",< 1 µM,+++ (+++ is >60%)
"CC1(C)CC2CCCNc3cccc(n3)S(=O)(=O)NC(=O)c3ccc(-n4ccc(OCC5C(C)(C)C5(C)C)n4)nc3N1C2 (stereo not shown) [Compound 42, 12,12-dimethyl-8-{3-[(2,2,3,3-tetramethylcyclopropyl)methoxy]-1H-pyrazol-1-yl}-2λ^6-thia-3,9,11,18,23-pentaazatetracyclo[17.3.1.111,14.05,10]tetracosa-1(22),5,7,9,19(23),20-hexaene-2,2,4-trione]",< 1 µM,+++ (+++ is >60%)
"CC1(C)C[C@H]2CCCNc3cccc(n3)S(=N)(=O)NC(=O)c3ccc(-n4ccc(OCCC5(C(F)(F)F)CC5)n4)nc3N1C2 (single isomer, unassigned) [Compound 266, 2-Imino-12,12-dimethyl-8-(3-{2-[1-(trifluoromethyl)cyclopropyl]ethoxy}-1H-pyrazol-1-yl)-2λ^6-thia-3,9,11,18,23-pentaazatetracyclo[17.3.1.111,14.05,10]tetracosa-1(23),5,7,9,19,21-hexaene-2,4-dione]",< 1 µM,++ (++ is 30-60%)
"CC(C)(C)COc1ccn(-c2ccc3c(n2)N2C[C@H](CCNc4cccc(n4)S(=O)(=O)NC3=O)CC2(C)C)n1 (single isomer, unassigned) [Compound 3, 11-[3-(2,2-dimethylpropoxy)-1H-pyrazol-1-yl]-7,7-dimethyl-17λ^6-thia-2,8,10,16,22-pentaazatetracyclo[16.3.1.15,8.09,14]tricosa-1(21),9(14),10,12,18(22),19-hexaene-15,17,17-trione]",< 1 µM,+++ (+++ is >60%)
"Cc1cn2nc1S(=O)(=O)NC(=O)c1ccc(-n3ccc(OCCC(C4CC4)C4CC4)n3)nc1N1C[C@H](CCC2)CC1(C)C (single isomer, unassigned) [Compound 201, 4-[3-(3,3-Dicyclopropylpropoxy)-1H-pyrazol-1-yl]-12,20,20-trimethyl-10λ^6-thia-1,3,9,14,22-pentaazatetracyclo[16.2.1.111,14.02,7]docosa-2(7),3,5,11(22),12-pentaene-8,10,10-trione]",> 3 µM,+ (+ is <30%)
